Laboratory results as given in patent US20250179047A1, “5-[7-(3,4-DIHYDRO-1H-ISOQUINOLINE-2-CARBONYL)-1,2,3,4 TETRAHYDROISOQUINOLIN-6-YL]-1H-PYRROLE-3-CARBOXAMIDE DERIVATIVES, PHARMACEUTICAL COMPOSITIONS CONTAINING THEM AND THEIR USES AS PRO-APOPTOTIC AGENTS” (LES LABORATOIRES SERVIER, priority 2022, published 2025).

Columns and labels:
[1] = molecular target: BCL2 G101V (Homo sapiens, UniProt P10415, G101V); test: TR-FRET competitive binding assay, BCL2 G101V; conditions: BCL2 G101V; Ki determined from IC50; read-out: TR_FRET EKI_Bcl2 G101V
Summary of the method: (§1)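 Competitive TR-FRET displacement of fluorescein-PUMA peptide (2 or 20 nM) from 0.5 nM terbium-labelled N-terminal Halo-fusion BCL2 (1-207, wild type or mutant) or BCLXL (2-196), expressed in E. coli. Buffer 50 mM Hepes pH 7.5, 150 mM NaCl, 5% DMSO; 2 h at 23°C. 520/495 nm ratio fitted over 11 points for IC50, converted to Ki.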

[2] = tested on: BCL2 G101V; test: TR-FRET competitive binding assay, BCL2 G101V; design: species or system human; conditions: ratio Ki BCL2 G101V / Ki BCL2 WT
Summary of the method: as §1

[3] = molecular target: BCL2 F104I (Homo sapiens, UniProt P10415, F104I); test: TR-FRET competitive binding assay, BCL2 F104I; conditions: Ki determined from IC50, read-out: TR_FRET EKI_Bcl2 F104I
Method: The relative binding potency of each compound was determined in a competitive binding assay using time resolved-fluorescence resonance energy transfer (TR-FRET). The method utilised a fluorescein labelled peptide derived from PUMA (5Flu-Ahx-[…]-NH2 wherein Ahx means 6-hexanoic acid monomer and the amino acid sequence is referred to as SEQ ID:01) which binds to a terbium labelled BCL2 or BCLXL protein. The degree of binding or corresponding compound inhibition can be quantified by the TR-FRET signal between the terbium donor and fluorescein acceptor.
The human BCL2_wild-type (also named BCL2_wt), BCL2_G101V mutant and BCLXL_wild-type were E. coli expressed as a N-terminal Halo-fusion proteins and singly labelled with Terbium on the Halo protein to afford the following amino acid sequences:
wherein the BCL2(1-207) sequence corresponds to UniProtKB® primary accession number P10415 and the BCLXL(2-196) sequence corresponds to UniProtKB® primary accession number Q07817-1.
The assay was performed in a 40 μL volume in white 384-standard well plates (Corning #3574). An 11-point serial dilution of each compound was prepared in DMSO and transferred directly to plate followed by addition of fluorescein labelled peptide and lastly protein. Final assay conditions were 0.5 nM BCL2_wt, BCL2_G101V, BCL2_D103Y, BCL2_F104I, BCL2_D111A or BCLXL_wt, 2 or 20 nM fluorescein labelled peptide, 50 mM Hepes pH 7.5, 150 mM NaCl, 0.5 mM TCEP (Tris(2-carboxyethyl)phosphine), 0.05% Tween 20, 5% DMSO. The mixture was incubated for 2 hours at 23° C.
TR-FRET measurements were performed on a Biotek Synergy Neo plate reader. TR-FRET was measured by excitation of the Terbium-donor at 340 nm and subsequent (delay time 100 μs) measurement of terbium and fluorescein emission at 495 nm and 520 nm, respectively, over a collection time of 300 μs. The TR-FRET signal was calculated as the emission-ratio at 520 nm over 495 nm.
The TR-FRET ratio readout for test compounds was normalized against 0% inhibition controls wells and 100% inhibition control wells. Test compound potency (IC50) was estimated by nonlinear regression using the sigmoidal dose-response (variable slope) using Xlfit 4 (IDBS, Guildford, Surrey, UK, model 205). Were the IC50 could not be determined the % inhibition at the highest tested concentration is given.
y=(A+((B−A)/(1+((C/x)^D))))
where y is the normalized TR-TRET ratio measurement for a given concentration of test compound, x is the concentration of test compound, A is the estimated efficacy (% inhibition) at infinite compound dilution, and B is the maximal efficacy (% inhibition). C is the IC50 value and D is the Hill slope coefficient.
The K1 values were determined from the IC50 values according to Cer et al, Nucleic Acids Res, 2009, July 1; 37 (WebServer issue): W441-W445.

[4] = tested on: KMS-12-PE Bcl-2 WT; test: In vitro cytotoxicity CellTiter-Glo 48 h, KMS-12-PE Bcl-2 WT; type: cell-based; conditions: Homo sapiens, KMS-12-PE, C50 = concentration needed to reach 50% of the cellular viability
Summary of the method: (§2)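 CTG luminescence read-out; C50 = concentration reaching 50% cellular viability. Cells: KMS-12-PE expressing Bcl-2 WT or G101V (lentiviral, TagRFP-sorted). 11-pt curve, 48 h, 37 °C/5% CO2.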

[5] = tested on: KMS-12-PE Bcl-2 G101V; test: In vitro cytotoxicity CellTiter-Glo 48 h, KMS-12-PE Bcl-2 G101V; type: cell-based; conditions: for Ratio (G101V/WT): C50 KMS-12-PE Bcl-2 G101V over C50 KMS-12-PE Bcl-2 WT; for IC50: Homo sapiens, KMS-12-PE, 48 h, CellTiter-Glo, C50 = concentration needed to reach 50% of the cellular viability
Summary of the method: as §2

[6] = molecular target: BCL2 WT (Homo sapiens (Human), UniProt P10415); test: TR-FRET competitive binding assay, BCL2 WT; conditions: Ki determined from IC50, read-out: TR_FRET EKI_Bcl2 WT
Summary of the method: as §1

[7] = molecular target: BCLXL WT (Homo sapiens (Human), UniProt Q07817); test: TR-FRET competitive binding assay, BCLXL WT; conditions: for Ki: BCLXL WT, Ki determined from IC50, read-out: TR_FRET EKI BclxL; for TR_FRET EKI BCLxL/WT selectivty ratio: ratio Ki BCLxL / Ki BCL2 WT
Chain of BCLXL WT (Q07817 other isoform, or with tags, fused parts or gaps): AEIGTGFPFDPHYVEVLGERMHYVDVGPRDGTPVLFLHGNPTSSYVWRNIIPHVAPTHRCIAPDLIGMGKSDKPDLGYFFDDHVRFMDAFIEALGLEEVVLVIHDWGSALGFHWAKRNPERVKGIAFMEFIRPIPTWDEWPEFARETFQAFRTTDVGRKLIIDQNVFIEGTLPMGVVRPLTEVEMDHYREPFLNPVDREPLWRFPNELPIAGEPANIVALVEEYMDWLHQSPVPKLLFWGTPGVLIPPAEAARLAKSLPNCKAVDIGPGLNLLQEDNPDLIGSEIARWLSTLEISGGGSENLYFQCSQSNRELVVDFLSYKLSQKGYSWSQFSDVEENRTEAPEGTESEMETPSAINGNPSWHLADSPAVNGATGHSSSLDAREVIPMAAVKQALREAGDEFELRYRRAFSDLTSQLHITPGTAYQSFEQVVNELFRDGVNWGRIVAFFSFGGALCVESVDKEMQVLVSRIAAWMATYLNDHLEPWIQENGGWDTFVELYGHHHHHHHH
Summary of the method: as §1

[8] = molecular target: BCL2 D103Y (Homo sapiens, UniProt P10415, D103Y); test: TR-FRET competitive binding assay, BCL2 D103Y; conditions: Ki determined from IC50, read-out: TR_FRET EKI_Bcl2 D103Y
Summary of the method: as §1

SMILES | Ki [1] [nM] | TR_FRET EKI G101V/WT selectivty ratio [2] | Ki [3] [nM] | IC50 [4] [µM] | Ratio (G101V/WT) [5] | IC50 [5] [µM] | Ki [6] [nM] | Ki [7] [nM] | TR_FRET EKI BCLxL/WT selectivty ratio [7] | Ki [8] [nM]
Cc1cccc(CC(=O)N2CCc3cc(-c4cc(C(=O)N(c5ccc(O)cc5)c5cc(C#N)n(C)c5C)c(C)n4C)c(C(=O)N4Cc5ccccc5C[C@H]4C)cc3C2)c1 [Example 1, N-(5-cyano-1,2-dimethyl-1H-pyrrol-3-yl)-N-(4-hydroxyphenyl)-1,2-dimethyl-5-{7-[(3R)-3-methyl-1,2,3,4-tetrahydroisoquinoline-2-carbonyl]-2-[2-(3-methylphenyl)acetyl]-1,2,3,4-tetrahydroisoquinolin-6-yl}-1H-pyrrole-3-carboxamide] | 2.2 | 6.5 | 6.12 | 0.0087 | 8.92 | 0.0776 | 0.34 | – | – | –
Cc1c(N(C(=O)c2cc(-c3cc4c(cc3C(=O)N3Cc5ccccc5C[C@H]3C)CN(C(=O)COc3ccccc3)CC4)n(C)c2C)c2ccc(O)cc2)cc(C#N)n1C [Example 2, N-(5-cyano-1,2-dimethyl-1H-pyrrol-3-yl)-N-(4-hydroxyphenyl)-1,2-dimethyl-5-{7-[(3R)-3-methyl-1,2,3,4-tetrahydroisoquinoline-2-carbonyl]-2-(2-phenoxyacetyl)-1,2,3,4-tetrahydroisoquinolin-6-yl}-1H-pyrrole-3-carboxamide] | 0.5 | 3.0 | 3.08 | 0.004 | 5.04 | 0.02 | 0.17 | 2.1 | 12.7 | 1.09
Cc1c(N(C(=O)c2cc(-c3cc4c(cc3C(=O)N3Cc5ccccc5C[C@H]3C)CN(C(=O)Cc3cccc(N5CCN(C)CC5)c3)CC4)n(C)c2C)c2ccccc2)cc(C#N)n1C [Example 3, N-(5-cyano-1,2-dimethylpyrrol-3-yl)-1,2-dimethyl-5-(7-{[(3R)-3-methyl-3,4-dihydro-1H-isoquinolin-2-yl]carbonyl}-2-{2-[3-(4-methylpiperazin-1-yl)phenyl]acetyl}-3,4-dihydro-1H-isoquinolin-6-yl)-N-phenylpyrrole-3-carboxamide] | 0.4 | 11.7 | 1.65 | 0.0054 | 9.44 | 0.051 | 0.03 | 1.3 | 43.3 | 0.12
Cc1c(C(=O)N(c2ccccc2)c2cc(C#N)n(CCO)c2C)cc(-c2cc3c(cc2C(=O)N2Cc4ccccc4C[C@H]2C)CN(C(=O)Cc2ccccc2)CC3)n1C [Example 4, N-[5-cyano-1-(2-hydroxyethyl)-2-methyl-pyrrol-3-yl]-1,2-dimethyl-5-[7-[(3R)-3-methyl-3,4-dihydro-1H-isoquinoline-2-carbonyl]-2-(2-phenylacetyl)-3,4-dihydro-1H-isoquinolin-6-yl]-N-phenyl-pyrrole-3-carboxamide] | 3.2 | 30.2 | 11.9 | 0.0048 | 25.9 | 0.124 | 0.11 | – | – | –
Cc1c(N(C(=O)c2cc(-c3cc4c(cc3C(=O)N3Cc5ccccc5C[C@H]3C)CN(C(=O)Cc3ccc(F)cc3)CC4)n(C)c2C)c2ccc(O)cc2)cc(C#N)n1C [Example 5, N-(5-cyano-1,2-dimethyl-1H-pyrrol-3-yl)-5-{2-[2-(4-fluorophenyl)acetyl]-7-[(3R)-3-methyl-1,2,3,4-tetrahydroisoquinoline-2-carbonyl]-1,2,3,4-tetrahydroisoquinolin-6-yl}-N-(4-hydroxyphenyl)-1,2-dimethyl-1H-pyrrole-3-carboxamide] | 1.3 | 7.3 | 4.45 | 0.0057 | 4.98 | 0.0285 | 0.18 | – | – | –
COc1cccc(CC(=O)N2CCc3cc(-c4cc(C(=O)N(c5ccc(O)cc5)c5cc(C#N)n(C)c5C)c(C)n4C)c(C(=O)N4Cc5ccccc5C[C@H]4C)cc3C2)c1 [Example 7, N-(5-cyano-1,2-dimethyl-1H-pyrrol-3-yl)-N-(4-hydroxyphenyl)-5-{2-[2-(3-methoxyphenyl)acetyl]-7-[(3R)-3-methyl-1,2,3,4-tetrahydroisoquinoline-2-carbonyl]-1,2,3,4-tetrahydroisoquinolin-6-yl}-1,2-dimethyl-1H-pyrrole-3-carboxamide] | 0.8 | 5.7 | 2.6 | 0.0058 | 12.2 | 0.0713 | 0.14 | – | – | 0.88
Cc1c(N(C(=O)c2cc(-c3cc4c(cc3C(=O)N3Cc5ccccc5C[C@H]3C)CN(C(=O)Cc3cccc(N5CCN6CCOC[C@@H]6C5)c3)CC4)n(C)c2C)c2ccccc2)cc(C#N)n1C [Example 8, 5-[2-(2-{3-[(9aS)-hexahydro-1H-piperazino[2,1-c]morpholin-8-yl]phenyl}acetyl)-7-{[(3R)-3-methyl-3,4-dihydro-1H-isoquinolin-2-yl]carbonyl}-3,4-dihydro-1H-isoquinolin-6-yl]-N-(5-cyano-1,2-dimethylpyrrol-3-yl)-1,2-dimethyl-N-phenylpyrrole-3-carboxamide] | 1.2 | 20.3 | 3.46 | 0.0026 | 27.6 | 0.0727 | 0.06 | 2.8 | 47.46 | –
Cc1cc(O)ccc1N(C(=O)c1cc(-c2cc3c(cc2C(=O)N2Cc4ccccc4C[C@H]2C)CN(C(=O)Cc2ccccc2)CC3)n(C)c1C)c1cc(C#N)n(C)c1C [Example 9, N-(5-cyano-1,2-dimethyl-1H-pyrrol-3-yl)-N-(4-hydroxy-2-methylphenyl)-1,2-dimethyl-5-{7-[(3R)-3-methyl-1,2,3,4-tetrahydroisoquinoline-2-carbonyl]-2-(2-phenylacetyl)-1,2,3,4-tetrahydroisoquinolin-6-yl}-1H-pyrrole-3-carboxamide] | 2.8 | 5.8 | 17.9 | 0.0254 | 7.01 | 0.178 | 0.48 | – | – | 1.27
